Reference: patent publication US8859599B2, “Androgen receptor modulating compounds, preparation and uses thereof” (priority 2009, dated 2014)
Where two headings read alike, the source gives them in different places.

Key:
LNCaP cells [1] = assay: TUNEL assay of apoptotic cells in LNCaP; assay type: cell-based, human; conditions: 144-h exposure, 20.0 μM
Method: Cells were fixed in 1% paraformaldehyde in PBS on ice for 15 min, suspended in ice cold ethanol (70%) and stored overnight at −20° C. Cells were then washed twice in PBS and resuspended in PBS containing 0.1% Triton X-100 for 5 min at 4° C. Thereafter, samples were incubated in 50 μl of solution containing TdT and FITC-conjugated dUTP deoxynucleotides 1:1 (Roche Diagnostic GmbH, Mannheim, Germany) in a humidified atmosphere for 90 min at 37° C. in the dark, washed in PBS, counterstained with propidium iodide (2.5 μg/ml, MP Biomedicals, Verona, Italy) and RNAse (10 Kunits/ml, Sigma Aldrich, Milan, Italy) for 30 min at 4° C. in the dark and analyzed by flow cytometry.
After the end of drug exposures, medium was removed and cells were detached from the flasks by trypsin treatment, washed twice with PBS and stained according to the different methods specified below. Flow cytometric analysis was performed using a FACS Canto flow cytometer (Becton Dickinson, San Diego, Calif.). Data acquisition and analysis were performed using FACSDiva software (Becton Dickinson). Samples were run in triplicate and 10,000 events were collected for each replica. Data were the average of three experiments, with errors under 5%.
The cells, before TUNEL assay, were continuously exposed to the anti-androgen compounds for 144 hours at the concentration of 20.0 μM.

DU145 = assay: SRB cytotoxicity on DU145 cells; assay type: cell-based, human; conditions: DU145 cells (no AR), 144 h exposure
Method: (§1) Finally, compounds were also tested on HepG2 cells, originally isolated from a primary hepatoblastoma of a child, purchased from ATCC.
(§2) Sulforhodamine B (SRB) assay was used according to the method by Skehan et al. (JNCI, 1990). Briefly, cells were collected by trypsinization, counted and plated at a density of 5,000 cells/well in 96-well flat-bottomed microtiter plates (100 μl of cell suspension/well). In the chemosensitivity assay, experiments were run in octuplicate, and each experiment was repeated three times. The optical density (OD) of cells was determined at a wavelength of 490 nm by a colorimetric plate reader.
(§3) Growth inhibition and cytocidal effect of drugs were calculated according to the formula reported by Monks et al. (JNCI, 1991): [(ODtreated−ODzero)/(ODcontrol−ODzero)]×100%, when ODtreated is > to ODzero. If ODtreated is above ODzero, treatment has induced a cytostatic effect, whereas if ODtreated is below ODzero, cell killing has occurred. The ODzero depicts the cell number at the moment of drug addition, the ODcontrol reflects the cell number in untreated wells and the ODtreated reflects the cell number in treated wells on the day of the assay. TUNEL Assay
(§4) The authors tested the antitumour activity of the compounds also on PC-3 and DU145 cancer cell lines, representative of hormone-refractory prostate cancer due to AR receptor absence.

PC-3 = assay: SRB cytotoxicity on PC-3 cells; assay type: cell-based, human; conditions: PC-3 cells (no AR), 144 h exposure
Method: as §1, §2, §3, §4

LNCaP cells [2] = assay: Sulforhodamine B (SRB) in vitro chemosensitivity assay on LNCaP cells; assay type: cell-based; conditions: for LC50: read-out: cytocidal effects by 50% (LC50), LNCaP cells, 144 h exposure; for LC50 / cytocidal effects by 50% (LC50): n.r. = not reached
Method: as §2, §3
The authors examined the antitumour activity of the compounds for which the synthesis is described above, in the hormone-sensitive prostate cancer cell line LNCaP. (R)-Bicalutamide and the novel compounds were tested at the increasing concentrations of […]. The highest dose used was chosen on the basis of the clinically achievable peak plasma concentration reported in the literature for bicalutamide (Cockshott I D. Clin Pharmacokinet. 2004; 43 (13) 855-78).
After 144-hr exposure time, the cytotoxic effect of the molecules was calculated according to the method of Monks et al. (Monks A, et al., J. Nat. Cancer Inst. 1991; 83: 757-66).

LNCaP-AR cells = assay: TUNEL assay of apoptotic cells in LNCaP-AR; assay type: cell-based, human; conditions: LNCaP-AR, 144-h exposure, 20.0 μM, TUNEL
[3] = test system: normal stem cells derived from human peripheral blood stem cells; assay: Colony-forming cell assay (GM-CFU); assay type: cell-based; conditions: highest concentration tested, 14 days incubation
Method: The colony-forming cell assay was used as previously described [Motta M R et al., Exp Hematol 1997; 25:1261-1269]. In brief, for each molecule, 5×10^4 cells were plated in duplicate in a complete culture medium (MethoCult H4434, StemCell Technologies, Vancouver, Canada) containing different concentrations (0.2, 2, and 20 μmol/l) of the compound. After 14 days of incubation in a humidified atmosphere of 5% CO2 at the temperature of 37° C., granulocyte macrophage colony-forming unit (GM-CFU) aggregates of more than 50 cells were counted. Control cells were incubated under the same conditions but in drug-free medium.
The authors also evaluated the potential toxicity of some of the novel compounds in normal cells as the ability of the drugs to inhibit clonogenic growth of normal stem cells derived from human peripheral blood stem cells (FIG. 37). The exposure of hematopoietic precursor to the compounds, caused low ((S)-37) or negligible (, (R)-22, (R)-23, (R)-10) toxicity at the highest concentration tested.

[4] = target: T1, human androgen receptor (hAR) (Homo sapiens, UniProt P10275); assay: hAR transactivation assay (ARE-luciferase reporter) in Cos-7 cells; assay type: cell-based
T1 construct: The cDNA coding hAR was cloned into the pSG5 expression vector as reported previously; expressed in transfected cells; host or cells: Cos-7 cells transiently transfected with pSG5-hAR
T1 sequence (P10275 1-920): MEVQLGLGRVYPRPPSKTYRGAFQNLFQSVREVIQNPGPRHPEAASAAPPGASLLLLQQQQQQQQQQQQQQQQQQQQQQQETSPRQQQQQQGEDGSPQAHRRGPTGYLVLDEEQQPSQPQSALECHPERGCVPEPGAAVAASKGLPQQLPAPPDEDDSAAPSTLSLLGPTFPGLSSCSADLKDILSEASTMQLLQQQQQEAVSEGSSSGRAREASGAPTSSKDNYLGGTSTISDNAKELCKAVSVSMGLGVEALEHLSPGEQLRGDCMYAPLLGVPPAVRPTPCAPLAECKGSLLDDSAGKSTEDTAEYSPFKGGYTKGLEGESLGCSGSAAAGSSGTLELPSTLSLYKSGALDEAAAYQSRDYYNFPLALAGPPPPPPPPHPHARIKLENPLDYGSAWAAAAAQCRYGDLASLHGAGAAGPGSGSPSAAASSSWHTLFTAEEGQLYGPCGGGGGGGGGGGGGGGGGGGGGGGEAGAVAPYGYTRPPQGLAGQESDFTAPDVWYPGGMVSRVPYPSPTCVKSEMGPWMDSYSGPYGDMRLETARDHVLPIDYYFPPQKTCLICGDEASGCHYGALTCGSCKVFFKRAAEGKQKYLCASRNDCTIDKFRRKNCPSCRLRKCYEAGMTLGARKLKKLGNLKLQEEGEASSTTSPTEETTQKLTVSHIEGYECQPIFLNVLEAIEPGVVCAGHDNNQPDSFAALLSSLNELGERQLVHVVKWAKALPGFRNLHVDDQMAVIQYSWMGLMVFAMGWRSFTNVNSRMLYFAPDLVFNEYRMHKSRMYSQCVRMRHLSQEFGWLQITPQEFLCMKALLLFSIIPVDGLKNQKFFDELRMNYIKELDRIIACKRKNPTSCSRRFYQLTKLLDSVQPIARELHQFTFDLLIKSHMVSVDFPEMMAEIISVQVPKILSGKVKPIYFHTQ
Method: The cDNA coding hAR was cloned into the pSG5 expression vector as reported previously [Chang, C. S., et al., Science (1988)240:324-326]. The 3416 construct (ARE-Luc), containing four copies of the wild-type slp-HRE2 (5′-TGGTCAgccAGTTCT-3′) (SEQ ID No. 1) was cloned in the NheI site in pTK-TATA-Luc [Verrijdt, G. et al., J. Biol. Chem. (2000)275:12298-12305].
For androgen-stimulated transcriptional analysis, 32×10^4 Cos-7 cells were plated in phenol red-free DMEM containing 5% charcoal-stripped serum. After 48 h, the cells were transfected by Superfect (Qiagen) with 0.3 μg of 3416-pTK-TATA-Luc construct, together with 1.5 μg of either pSG5-empty plasmid or pSG5-hAR expressing plasmid. After 18 h, transfected cells were stimulated for 24 h with 10 nM of the synthetic androgen, R1881 (from Perkin-Elmer; dissolved in 0.001% ethanol, final concentration), in the absence or presence of the indicated concentrations of synthetic compounds. When indicated, the synthetic compounds were added alone to the cell medium. […] It was dissolved in 0.001% (final concentration) ethanol. Control cells were treated with the vehicle alone. Lysates were prepared and the luciferase activity was measured using a luciferase assay system (Promega). The results were corrected using CH110-expressed beta-galactosidase activity (Amersham Biosciences) and luciferase activity was expressed as fold induction. Results were obtained from two or three different experiments, each performed in duplicate. Mean and SEM are shown.

HepG2 cells = assay: Cytotoxic activity on hepatoblastoma cell line HepG2; assay type: cell-based, human; conditions: up to highest concentration tested
Method: as §1, §2, §3
The authors evaluated in vitro the potential hepato-toxicity of some of the novel compounds on HepG2 cell line, a human hepatoblastoma cell line that retains the specialized function of normal hepatocytes [Knowles B B, et al., Science 1980, 209:497-499; Aden D P, et al., Nature, 1979, 282:615-616].

[5] = Homo sapiens, LNCaP, 144 h, read-out: Growth inhibition (GI50), LNCaP cells, 144 h exposure

For `Cc1ccc(S(=O)(=O)N[C@](C)(CS(=O)(=O)c2ccc(F)cc2)C(=O)Nc2ccc(C#N)c(C(F)(F)F)c2)cc1` [(S)-26], which “Apoptotic cells (%)” value (LNCaP cells [1]) is on record?
Its value is 77.5%.

What about the “cytotoxic properties compared to effects on LNCaP and LNCaP-AR cells” value (from here on “cytotoxic properties compared to effects”) (DU145) of the same compound?
The value was “significant reduction in their cytotoxic proprieties”.

What about the “cytotoxic properties compared to effects” value (PC-3) of the same compound?
Its value is “significant reduction in their cytotoxic proprieties”.

And the GI50 (LNCaP cells [2]; [5])?
The GI50 was 6.3 µM.

What about the LC50 (LNCaP cells [2]; Homo sapiens, LNCaP, 144 h) of the same compound?
Its LC50 is 18.3 µM.

What about the “Apoptotic cells (%)” value (LNCaP-AR cells) of the same compound?
The value was 91.6%.

Which results are given for `CC(C)(C)S(=O)(=O)N[C@](C)(CS(=O)(=O)c1ccc(F)cc1)C(=O)Nc1ccc(C#N)c(C(F)(F)F)c1` [(S)-22]?
Apoptotic cells (%) (LNCaP cells [1]): 6.2%; cytotoxic properties compared to effects on LNCaP and LNCaP-AR cells (DU145): significant reduction in their cytotoxic proprieties; cytotoxic properties compared to effects on LNCaP and LNCaP-AR cells (PC-3): significant reduction in their cytotoxic proprieties; GI50 (LNCaP cells [2]; [5]): 7 µM; LC50 (LNCaP cells [2]; Homo sapiens, LNCaP, 144 h): 19.8 µM; cytocidal (cell killing) activity (LNCaP cells [2]; LNCaP cells, 144 h exposure): cytocidal activity; Apoptotic cells (%) (LNCaP-AR cells): 0.0%

How did the “Apoptotic cells (%)” value (LNCaP cells [1]) turn out when `N#Cc1ccc(NC(=O)[C@@](N)(CS(=O)(=O)c2ccc(F)cc2)c2ccccc2)cc1C(F)(F)F` [(R)-9] was run?
The value was 93.5%.

And the “cytotoxic properties compared to effects” value (DU145)?
Its value is “significant reduction in their cytotoxic proprieties”.

What about the “cytotoxic properties compared to effects” value (PC-3) of the same compound?
Its value is “significant reduction in their cytotoxic proprieties”.

What about the LC50 (LNCaP cells [2]; Homo sapiens, LNCaP, 144 h) of the same compound?
Its LC50 is 15 µM.

What about the “cytocidal (cell killing) activity” value (LNCaP cells [2]; LNCaP cells, 144 h exposure) of the same compound?
The value was “cytocidal activity”.

And the GI50 (LNCaP cells [2]; read-out: Growth inhibition (GI50), LNCaP cells, 144 h exposure)?
The GI50 was 1.6 µM.

And the “Apoptotic cells (%)” value (LNCaP-AR cells)?
Its value is 83.5%.

Which results are given for `C[C@](O)(CS(=O)(=O)c1ccc(F)cc1)C(=O)Nc1ccc(C#N)c(C(F)(F)F)c1` [(R)-Bicalutamide, reference compound]?
Apoptotic cells (%) (LNCaP cells [1]): 2.1%; GI50 (LNCaP cells [2]; Homo sapiens, LNCaP cells, 144 h exposure, read-out: Growth inhibition (GI50)): 1.8 µM; cytocidal effects by 50% (LC50) (LNCaP cells [2]; LNCaP cells, 144 h exposure): n.r.; Apoptotic cells (%) (LNCaP-AR cells): 1.0%

For `CC(C)(C)S(=O)(=O)N[C@@](C)(CS(=O)(=O)c1ccc(F)cc1)C(=O)Nc1ccc(C#N)c(C(F)(F)F)c1` [(R)-22, (R)—N-(4-cyano-3-(trifluoromethyl)phenyl)-2-(1,1-dimethylethylsulfonamido)-3-(4-fluorophenylsulfonyl)-2-methylpropanamide], which “toxicity: inhibition of clonogenic growth of hematopoietic precursors” value [3] is on record?
The value was “negligible”.

And the “inhibition of androgen-induced transcriptional activation (antagonistic activity)” value ([4]; cells challenged with 10 nM R1881, compound at 10 μM)?
The value was “antagonistic activity”.

What about the “agonistic activity, compound alone” value ([4]; range between 100 nM-10 μM) of the same compound?
The value was “functions as agonist”.

What about the GI50 (LNCaP cells [2]; [5]) of the same compound?
The GI50 was 5.8 µM.

And the LC50 (LNCaP cells [2]; Homo sapiens, LNCaP, 144 h)?
The LC50 was 20 µM.

What about the “cytostatic effect: suppression of cell growth” value (LNCaP cells [2]; LNCaP cells, 144 h, highest concentration tested) of the same compound?
Its value is “suppress completely the cell growth”.

What about the potential hepato-toxicity (HepG2 cells) of the same compound?
The potential hepato-toxicity was “negligible toxicity”.

What does the source list for `C[C@](N)(CS(=O)(=O)c1ccc(F)cc1)C(=O)Nc1ccc(C#N)c(C(F)(F)F)c1` [(R)-23, (R)-2-amino-N-(4-cyano-3-(trifluoromethyl)phenyl)-3-(4-fluorophenylsulfonyl)-2-methyl propanamide]?
toxicity: inhibition of clonogenic growth of hematopoietic precursors [3]: negligible; GI50 (LNCaP cells [2]; [5]): 10.6 µM; cytocidal effects by 50% (LC50) (LNCaP cells [2]; LNCaP cells, 144 h exposure): n.r.; potential hepato-toxicity (HepG2 cells): negligible toxicity
